Measurements: the NIST ThermoML archive (doi:10.1016/j.jct.2010.10.025)

Test: xn = mol fraction of the nth substance listed
Settings: 101 kPa, Liquid; for speed of sound: Sing-around technique in a fixed-path interferometer; for mass density: Vibrating tube method

Cc1ccccc1O [2-methylphenol] + CCCCCCCCCO
x1 = 1
Settings | mass density [kg/m3] | speed of sound [m/s]
293.15 K | 1045.69 | 1521.8
313.15 K | 1028.14 | 1453.3

Cc1cccc(O)c1 [3-methylphenol] + CCCCCCCCCO
x1 = 1
Settings | mass density [kg/m3] | speed of sound [m/s]
293.15 K | 1033.99 | 1496.8
313.15 K | 1018.06 | 1434.2

Cc1ccc(O)cc1 [4-methylphenol] + CCCCCCCCCO
Settings | mass density, 293.15 K [kg/m3] | mass density, 313.15 K [kg/m3] | speed of sound, 293.15 K [m/s] | speed of sound, 313.15 K [m/s]
x1 = 0.0723 | 837.798 | 823.756 | 1387.3 | 1319.8
x1 = 0.1353 | 846.887 | 832.662 | 1392.7 | 1324.9
x1 = 0.2032 | 856.995 | 842.572 | 1398.2 | 1330.5
x1 = 0.2637 | 866.395 | 851.785 | 1403.2 | 1335.7
x1 = 0.3492 | 880.334 | 865.479 | 1410.3 | 1343
x1 = 0.4122 | 891.234 | 876.214 | 1415.5 | 1348.6
x1 = 0.4898 | 905.461 | 890.246 | 1422.7 | 1356.1
x1 = 0.5492 | 917.111 | 901.771 | 1428.7 | 1362.2
x1 = 0.6143 | 930.635 | 915.184 | 1436 | 1369.8
x1 = 0.6735 | 943.741 | 928.201 | 1443.4 | 1377.4
x1 = 0.7455 | 960.902 | 945.287 | 1453.2 | 1388.3
x1 = 0.8163 | 979.164 | 963.518 | 1464.5 | 1400
x1 = 0.8789 | 996.577 | 980.938 | 1476 | 1412.3
x1 = 0.9362 | 1013.65 | 998.054 | 1487.5 | 1424.4
x1 = 1 | 1033.99 | 1018.47 | 1502.2 | 1439.6

COc1ccccc1 [anisole] + CCCCCCCCCO
x1 = 1
Settings | mass density [kg/m3] | speed of sound [m/s]
293.15 K | 993.845 | 1427.3
313.15 K | 974.966 | 1346.7

CCCCCCCCCO [nonan-1-ol] + COc1ccccc1
Settings | mass density, 293.15 K [kg/m3] | mass density, 313.15 K [kg/m3] | speed of sound, 293.15 K [m/s] | speed of sound, 313.15 K [m/s]
x2 = 0 | 827.704 | 813.877 | 1380.7 | 1314
x2 = 0.0691 | 834.714 | 820.629 | 1379.8 | 1312
x2 = 0.1265 | 840.852 | 826.539 | 1379.1 | 1310.9
x2 = 0.2023 | 849.439 | 834.809 | 1378.5 | 1309.8
x2 = 0.2701 | 857.605 | 842.665 | 1378.4 | 1309
x2 = 0.335 | 865.942 | 850.682 | 1378.5 | 1308.5
x2 = 0.405 | 875.488 | 859.873 | 1379 | 1308.3
x2 = 0.4753 | 885.766 | 869.775 | 1380.2 | 1308.6
x2 = 0.5348 | 895.034 | 878.714 | 1381.6 | 1309.2
x2 = 0.6025 | 906.314 | 889.609 | 1384.2 | 1311.1
x2 = 0.6657 | 917.614 | 900.551 | 1387.5 | 1313.4
x2 = 0.7399 | 931.942 | 914.464 | 1392.7 | 1317.5
x2 = 0.8198 | 948.831 | 930.915 | 1400.4 | 1323.4
x2 = 0.8791 | 962.443 | 944.199 | 1407.4 | 1329
x2 = 0.9468 | 979.271 | 960.651 | 1417.5 | 1337.5

CCCCCCCCCO [nonan-1-ol] + Cc1ccc(O)cc1
x2 = 0
Settings | mass density [kg/m3] | speed of sound [m/s]
293.15 K | 827.704 | 1380.7
313.15 K | 813.877 | 1314

CCCCCCCCCO [nonan-1-ol] + Cc1cccc(O)c1
Settings | mass density, 293.15 K [kg/m3] | mass density, 313.15 K [kg/m3] | speed of sound, 293.15 K [m/s] | speed of sound, 313.15 K [m/s]
x2 = 0 | 827.704 | 813.877 | 1380.7 | 1314
x2 = 0.0696 | 837.032 | 823.074 | 1386.7 | 1319.2
x2 = 0.1336 | 845.992 | 831.904 | 1390.8 | 1323.6
x2 = 0.2038 | 856.282 | 842.048 | 1395.6 | 1328.8
x2 = 0.2679 | 866.185 | 851.815 | 1400.4 | 1333.8
x2 = 0.3231 | 875.133 | 860.644 | 1404.9 | 1338.4
x2 = 0.3971 | 887.768 | 873.113 | 1411.3 | 1345
x2 = 0.4653 | 900.156 | 885.348 | 1417.5 | 1351.6
x2 = 0.5405 | 914.757 | 899.778 | 1425.3 | 1359.6
x2 = 0.6082 | 928.851 | 913.714 | 1432.9 | 1367.1
x2 = 0.6786 | 944.571 | 929.281 | 1441.8 | 1376.3
x2 = 0.7459 | 960.755 | 945.321 | 1451.1 | 1386.2
x2 = 0.8167 | 979.083 | 963.512 | 1461.2 | 1397.7
x2 = 0.8892 | 999.352 | 983.643 | 1474.3 | 1410.7
x2 = 0.9459 | 1016.5 | 1000.7 | 1485 | 1422.1

CCCCCCCCCO [nonan-1-ol] + Cc1ccccc1O
Settings | mass density, 293.15 K [kg/m3] | mass density, 313.15 K [kg/m3] | speed of sound, 293.15 K [m/s] | speed of sound, 313.15 K [m/s]
x2 = 0 | 827.704 | 813.877 | 1380.7 | 1314
x2 = 0.0747 | 838.281 | 824.298 | 1388 | 1320
x2 = 0.1411 | 848.105 | 833.982 | 1393.4 | 1325.4
x2 = 0.2087 | 858.578 | 844.312 | 1398.9 | 1330.9
x2 = 0.2614 | 867.121 | 852.733 | 1403.3 | 1335.5
x2 = 0.326 | 878.085 | 863.535 | 1408.9 | 1341.4
x2 = 0.4013 | 891.616 | 876.862 | 1416.1 | 1348.8
x2 = 0.4562 | 902.048 | 887.133 | 1422 | 1354.7
x2 = 0.5303 | 916.987 | 901.834 | 1430.5 | 1363.3
x2 = 0.5829 | 928.291 | 912.952 | 1437.3 | 1370
x2 = 0.645 | 942.416 | 926.834 | 1446.2 | 1378.7
x2 = 0.7171 | 960.1 | 944.211 | 1457.8 | 1389.8
x2 = 0.784 | 977.81 | 961.595 | 1470 | 1401.7
x2 = 0.8566 | 998.699 | 982.094 | 1485.3 | 1416.7
x2 = 0.9397 | 1024.88 | 1007.76 | 1505.2 | 1436.5
